Results reported in US7825264B2, “Substituted heterocycles, their use as medicament, and pharmaceutical preparations comprising them” (sanofi-aventis, priority 2005, dated 2010).

Target: T1, Human Kv1.5 channels (Homo sapiens, UniProt P22460)
T1 construct: expressed in transfected cells; host or cells: Xenopus laevis oocytes injected with RNA synthesized in vitro
Assay: Activity on the Kv1.5 channel: two-microelectrode voltage clamp on Xenopus oocytes expressing Kv1.5
Type: cell-based
Conditions: human Kv1.5 expressed in Xenopus oocytes, room temperature, Hill equation; read-out: Kv1.5 IC-50
Description: Determination of the Activity on the Kv1.5 Channel
Human Kv1.5 channels were expressed in xenopus oocytes. For this purpose, firstly oocytes were isolated from Xenopus laevis and defolliculated. Kv1.5-encoding RNA synthesized in vitro was then injected into these oocytes. After Kv1.5 protein expression for 1-7 days, Kv1.5 currents were measured on the oocytes using the two-microelectrode voltage clamp technique. The Kv1.5 channels were in this case usually activated with voltage jumps lasting 500 ms to 0 mV and 40 mV. A solution of the following composition flowed through the bath: NaCl 96 mM, KCl 2 mM, CaCl2 1.8 mM, MgCl2 1 mM, HEPES 5 mM (titrated to pH 7.4 with NaOH). These experiments were carried out at room temperature. The following were employed for data acquisition and analysis: Geneclamp amplifier (Axon Instruments, Foster City, USA) and MacLab D/A converter and software (ADInstruments, Castle Hill, Australia). The substances of the invention were tested by adding them in various concentrations to the bath solution. The effects of the substances were calculated as percent inhibition of the Kv1.5 control current which was obtained when no substance was added to the solution. The data were then extrapolated using the Hill equation in order to determine the inhibitory concentrations IC50 for the respective substances.

T1 sequence (P22460 whole entry): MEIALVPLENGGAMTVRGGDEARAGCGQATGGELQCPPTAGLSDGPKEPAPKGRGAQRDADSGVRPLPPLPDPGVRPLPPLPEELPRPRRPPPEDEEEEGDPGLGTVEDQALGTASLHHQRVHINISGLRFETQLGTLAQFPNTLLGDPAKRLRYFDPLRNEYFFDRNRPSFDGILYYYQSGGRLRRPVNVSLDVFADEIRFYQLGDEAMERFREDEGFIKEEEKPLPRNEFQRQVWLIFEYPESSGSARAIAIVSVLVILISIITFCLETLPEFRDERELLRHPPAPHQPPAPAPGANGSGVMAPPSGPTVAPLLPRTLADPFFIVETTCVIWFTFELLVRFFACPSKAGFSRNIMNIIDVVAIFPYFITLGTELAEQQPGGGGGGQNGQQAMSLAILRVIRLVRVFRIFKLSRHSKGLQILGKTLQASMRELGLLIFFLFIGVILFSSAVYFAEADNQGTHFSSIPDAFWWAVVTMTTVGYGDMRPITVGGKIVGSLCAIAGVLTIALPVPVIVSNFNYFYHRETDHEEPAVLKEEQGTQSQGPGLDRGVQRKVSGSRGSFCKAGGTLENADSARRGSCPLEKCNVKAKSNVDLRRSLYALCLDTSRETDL

Row | Compound | IC50 [nM]
1 | N#Cc1ccc(O[C@H](c2ccc(F)c(F)c2)[C@H](c2ccc(F)cc2)N2CCCC2=O)cc1 (racemic) [Example 4, 4-[(1R′,2S′)-1-(3,4-Difluorophenyl)-2-(4-fluorophenyl)-2-(2-oxopyrrolidin-1-yl)ethoxy]benzonitrile] | 3900
2 | CCCO[C@H](c1ccccc1)[C@H](c1ccccc1)N1CCCS1(=O)=O [Example 7, (1S,2R)-2-(1,2-Diphenyl-2-propoxyethyl)isothiazolidine-1,1-dioxide] | 600
3 | Cc1ccc([C@H]([C@H](OCC2CC2)c2ccc(F)cc2)N2CCCC2=O)s1 (racemic) [Example 17] | 300
4 | COc1ccc([C@@H](Oc2ccc(C(C)=O)cc2)[C@H](c2ccc(F)cc2)N2CCCC2=O)cc1 (racemic) [Example 110] | 9700
5 | N#Cc1ccc(O[C@H](c2ccc(F)c(F)c2)[C@@H](c2ccc(F)cc2)N2CCCC2=O)cc1 (racemic) [Example 102] | 5400
6 | COc1ccc(CO[C@H](c2ccc(F)cc2)[C@H](c2cccc3cccnc23)N2CCCC2=O)cc1 (racemic) [Example 98] | 5500
7 | COc1ccc(CO[C@H](c2ccc(F)c(F)c2)[C@H](c2ccc(F)cc2)N2CCCC2=O)cc1 (racemic) [Example 48] | 2100
8 | N#Cc1ccc(O[C@@H](c2cccc3cccnc23)[C@H](c2ccc(F)cc2)N2CCCC2=O)cc1 (racemic) [Example 10, 4-[(1R′,2R′)-2-(4-Fluorophenyl)-2-(2-oxopyrrolidin-1-yl)-1-quinolin-8-ylethoxy]benzonitrile] | 4400
9 | N#Cc1ccc(O[C@H](c2ccc(F)c(F)c2)[C@H](c2ccc(F)cc2)N2CCCCC2=O)cc1 (racemic) [Example 107] | 9600
10 | CC1CCC(=O)N1[C@@H](c1ccc(F)cc1)[C@H](OCC1CC1)c1ccc(F)c(F)c1 (mixture of isomers) [Example 35] | 500
11 | O=C1CCCN1[C@H](c1ccccn1)[C@H](OCC1CC1)c1ccccc1 (racemic) [Example 63] | 1700
12 | CCCO[C@@H](c1ccccc1)[C@@H](c1ccccc1)N1CCCS1(=O)=O [Example 54] | 1700
13 | C#CCO[C@H](c1ccc(F)c(F)c1)[C@H](c1ccc(F)cc1)N1CCCC1=O (racemic) [Example 38] | 700
14 | C[C@@](c1ccccc1)([C@H](OCC1CC1)c1ccccc1)N1CCCC1=O (racemic) [Example 31] | 1400
15 | N#Cc1ccc(O[C@@H](c2cccc3ccccc23)[C@H](c2ccc(F)cc2)N2CCCC2=O)cc1 (racemic) [Example 89] | 3500
16 | O=C1CCCN1[C@@H](c1cccnc1)[C@H](OCc1ccc(Cl)cc1)c1ccc(F)c(F)c1 (racemic) [Example 100] | 5400
17 | O=C1CCCCN1[C@@H](c1ccc(F)cc1)[C@@H](OCC1CC1)c1cccc2cccnc12 (racemic) [Example 1, 1-[(1R′,2S′)-2-Cyclopropylmethoxy-1-(4-fluorophenyl)-2-quinolin-8-ylethyl]-piperidin-2-one] | 1400

Row | Compound | IC50 [nM]
18 | N#Cc1ccc(O[C@H](c2ccccc2)[C@H](c2ccccn2)N2CCCC2=O)cc1 (racemic) [Example 96] | 5100
19 | N#Cc1ccc(O[C@H](c2cccnc2)[C@H](c2cccc3cccnc23)N2CCCC2=O)cc1 (racemic) [Example 66] | 2300
20 | CCCO[C@H](c1ccccc1)[C@H](c1ccccn1)N1CCCC1=O (racemic) [Example 71] | 1600
21 | O=C1CCCN1[C@@H](c1ccc(F)cc1)[C@H](OCC1CC1)C1CCCCC1 (racemic) [Example 83] | 1800
22 | CC(OCC1CC1)(c1ccccc1)C(c1ccccc1)N1CCCC1=O (stereo not drawn) [Example 8, 1-(2-Cyclopropylmethoxy-1,2-diphenylpropyl)pyrrolidin-2-one] | 1200
23 | COc1ccc(CO[C@H](c2ccc(F)cc2)[C@@H](c2ccc(F)cc2)N2CCCC2=O)cc1 (racemic) [Example 94] | 5300
24 | C#CCO[C@H](c1ccc(F)c(F)c1)[C@H](c1ccc(F)cc1)N1C(=O)CCC1C (mixture of isomers) [Example 26] | 1000
25 | N#Cc1ccc(O[C@H](c2ccc(F)c(F)c2)[C@H](c2ccc(F)cc2)N2CCCS2(=O)=O)cc1 (racemic) [Example 112] | ~10000
26 | O=C1CCCN1[C@@H](c1ccc(F)cc1)[C@H](OCC1CC1)c1ccc(OC(F)(F)F)cc1 (racemic) [Example 50] | 900
27 | COc1ccc(CO[C@@H](c2ccccc2)[C@@H](c2ccccc2)N2CCCCC2=O)cc1 [Example 103] | 6600
28 | COc1ccc([C@@H](Oc2ccc(C#N)cc2)[C@H](c2ccc(F)cc2)N2CCCC2=O)cc1 (racemic) [Example 59] | 1900
29 | N#Cc1ccc(O[C@H](c2ccc(F)c(F)c2)[C@H](c2cccnc2)N2CCCC2=O)cc1 (racemic) [Example 115] | ~10000
30 | C#CCO[C@H](c1ccc(F)c(F)c1)[C@H](c1ccc(F)cc1)N1CCCCC1=O (racemic) [Example 30] | 1100
31 | O=C1CCCN1[C@H](c1ccc(F)cc1)[C@@H](OCC1CC1)c1cccc2cccnc12 (racemic) [Example 39] | 1100
32 | O=C1CCCN1[C@@H](c1cccnc1)[C@H](OCCCC(F)(F)F)c1ccc(F)cc1 (racemic) [Example 65] | 1500
33 | O=C1CCCN1[C@@H](c1ccc(F)cc1)[C@H](OCCCC(F)(F)F)c1ccc(F)c(F)c1 (racemic) [Example 34] | 1000

More lines, now with the values ahead:

Row | IC50 [nM] | Compound
34 | 210 | CCCO[C@H](c1ccc(Cl)cc1)[C@H](c1ccccc1)N1CCCCC1=O (racemic) [Example 13]
35 | 800 | O=C1CCCN1[C@H](c1ccccc1)[C@H](OCC1CC1)c1ccc(F)cc1 (racemic) [Example 21]
36 | 2700 | CO[C@H](c1ccc(F)cc1)[C@H](c1ccccc1)N1CCCC1=O (racemic) [Example 77]
37 | 900 | C=CO[C@H](c1ccc(F)c(F)c1)[C@H](c1ccc(F)cc1)N1CCCC1=O [Example 121]
38 | 200 | O=C1CCCN1[C@H](c1ccc(F)cc1)[C@@H](OCC1CC1)c1cccc2ccccc12 (racemic) [Example 11, 1-[(1S′,2R′)-2-Cyclopropylmethoxy-1-(4-fluorophenyl)-2-naphthalen-1-ylethyl]pyrrolidin-2-one]
39 | 6300 | CO[C@H](c1ccc(F)c(F)c1)[C@H](c1ccc(F)cc1)N1CCCCC1=O (racemic) [Example 99]
40 | 4000 | O=C1CCCN1[C@@H](c1ccccc1)[C@H](OCC1CC1)c1ccncc1 (racemic) [Example 91]
41 | 4200 | CO[C@H](c1ccc(F)c(F)c1)[C@H](c1ccc(F)cc1)N1CCCC1=O (racemic) [Example 87]
42 | 500 | O=C1CCCN1[C@@H](c1ccccc1)[C@H](OCC1CC1)c1ccc(F)cc1 (racemic) [Example 44]
43 | 600 | O=C1CCCN1[C@@H](c1ccccc1)[C@H](OC1CC1)c1ccccc1 (racemic) [Example 32, 1S,2R-1-(Cyclopropoxy-1,2-diphenylethyl)pyrrolidin-2-one]
44 | 300 | O=C1CCCN1[C@@H](c1ccc(F)cc1)[C@H](OCC1CC1)c1ccc(F)cc1 (racemic) [Example 117]
45 | 1000 | COCCO[C@H](c1ccc(Cl)cc1)[C@H](c1ccccc1)N1CCCC1=O (racemic) [Example 47]
46 | 500 | O=C1CCCN1[C@H](c1ccc(F)cc1)[C@H](OCC1CC1)c1cccc2ccccc12 (racemic) [Example 12, 1-[(1R′,2R′)-2-Cyclopropylmethoxy-1-(4-fluorophenyl)-2-naphthalen-1-ylethyl]pyrrolidin-2-one]
47 | 500 | O=C1CCCN1[C@@H](c1ccc(F)cc1)[C@H](OC1CC1)c1ccc(F)c(F)c1 (racemic) [Example 49]
48 | 5400 | CCCO[C@H](c1ccncc1)[C@H](c1ccccc1)N1CCCC1=O (racemic) [Example 97]
49 | 900 | CCCO[C@H](c1ccc(F)cc1)[C@@H](c1ccc(F)cc1)N1CCCC1=O (racemic) [Example 33]
50 | 1200 | CO[C@H](c1ccc(Cl)cc1)[C@H](c1ccccc1)N1CCCCC1=O (racemic) [Example 67]
51 | 4000 | CO[C@@H](c1ccc(F)cc1)[C@H](c1ccccc1)N1CCCC1=O (racemic) [Example 88]
52 | 500 | CCO[C@H](c1ccc(Cl)cc1)[C@H](c1ccccc1)N1CCCC1=O (racemic) [Example 68]
53 | 920 | CCCO[C@@H](c1ccc(Cl)cc1)[C@@H](c1ccccc1)N1CCCC1=O (racemic) [Example 6, (1R′,2S′)-1-[2-(4-Chlorophenyl)-1-phenyl-2-propoxyethyl]pyrrolidin-2-one]
54 | 800 | O=C1CCCN1[C@@H](c1cccnc1)[C@H](OCC1CC1)c1ccc(F)cc1 (racemic) [Example 16]
55 | 300 | CCCO[C@H](c1ccc(F)cc1)[C@H](c1ccccc1)N1CCCC1=O (racemic) [Example 20]
56 | 2900 | COc1ccc(CO[C@H](c2cccnc2)[C@H](c2ccc(F)cc2)N2CCCC2=O)cc1 (racemic) [Example 86]

Target: Human TASK-1 channels (UniProt O35111)
Assay: Activity on the TASK-1 channel: two-microelectrode voltage clamp on Xenopus oocytes expressing TASK-1
Type: cell-based
Conditions: TASK-1 expressed in Xenopus oocytes, room temperature, Hill equation; read-out: mTask-1 IC-50

Row | IC50 [nM] | Compound
57 | 2300 | N#Cc1ccc(O[C@H](c2ccc(F)c(F)c2)[C@H](c2ccc(F)cc2)N2CCCC2=O)cc1 (racemic) [Example 4, 4-[(1R′,2S′)-1-(3,4-Difluorophenyl)-2-(4-fluorophenyl)-2-(2-oxopyrrolidin-1-yl)ethoxy]benzonitrile]
